Calls of active or inactive are those of the source. The calls are words filed in the database; no cut-off is given here.
How the values were obtained:
[1] = Binding affinity to EBOV glycoprotein assessed as dissociation constant by SPR analysis; parameters: species or system Ebolavirus
Ebolavirus [2] = assay: Antiviral activity against pseudotyped EBOV Mayinga infected in human A549 cells assessed as inhibition of viral growth at 3 uM measured after 3 hrs; assay type: functional, organism-based
Marburgvirus [3] = assay: Antiviral activity against pseudotyped Marburgvirus Angola infected in human A549 cells assessed as inhibition of viral growth at 10 uM entry measured after 2 hrs; assay type: functional, organism-based
Ebolavirus [4] = assay: Antiviral activity against pseudotyped EBOV Mayinga infected in human A549 cells assessed as inhibition of Pseudoviral entry incubated for 40 hrs; assay type: functional, organism-based; settings: Orthoebolavirus, A549, 40 h
[5] = Selectivity index, ratio of CC50 for cytotoxicity against human A549 cells to EC50 for antiviral activity against pseudotyped EBOV Mayinga infected in human A549 cells assessed as inhibition of Pseudoviral entry; assay type: toxicity, cell-based; settings: read-out: Ratio CC50/EC50
Marburgvirus [6] = assay: Antiviral activity against pseudotyped Marburgvirus Angola infected in human A549 cells assessed as inhibition of Pseudoviral entry incubated for 40 hrs; assay type: functional, organism-based; settings: Orthomarburgvirus, A549, 40 h
[7] = Selectivity index, ratio of CC50 for cytotoxicity against human A549 cells to EC50 for antiviral activity against pseudotyped Marburgvirus Angola infected in human A549 cells assessed as inhibition of Pseudoviral entry; assay type: toxicity, cell-based; settings: read-out: Ratio CC50/EC50
Ebolavirus [8] = assay: Antiviral activity against EBOV Mayinga infected in human HeLa cells assessed as inhibition of viral replication incubated for 40 hrs; assay type: functional, organism-based; settings: Orthoebolavirus
Sudan ebolavirus [9] = assay: Antiviral activity against pseudotyped Sudan ebolavirus Gulu infected in human HeLa cells assessed as inhibition of viral replication; assay type: functional, organism-based
Marburgvirus [10] = assay: Antiviral activity against Marburgvirus Angola infected in human Huh-7 cells assessed as inhibition of viral replication; assay type: functional, organism-based; settings: Orthomarburgvirus
[11] = Stability in human plasma measured after 60 mins; assay type: ADME, cell-free; settings: read-out: Stability
[12] = Stability in mouse plasma measured after 60 mins; assay type: ADME, cell-free; settings: read-out: Stability
CYP2C9 = CYP2C9 (Homo sapiens, UniProt P11712); assay: Inhibition of CYP2C9 in human liver microsomes using tolbutamide as substrate at 10 uM preincubated with compound for 5 mins followed by NADPH addition and measured after 20 mins by LC-MS/MS analysis relative to control; assay type: ADME, Microsome; settings: probe tolbutamide, time 25 min
Sequence of CYP2C9 (P11712 whole entry): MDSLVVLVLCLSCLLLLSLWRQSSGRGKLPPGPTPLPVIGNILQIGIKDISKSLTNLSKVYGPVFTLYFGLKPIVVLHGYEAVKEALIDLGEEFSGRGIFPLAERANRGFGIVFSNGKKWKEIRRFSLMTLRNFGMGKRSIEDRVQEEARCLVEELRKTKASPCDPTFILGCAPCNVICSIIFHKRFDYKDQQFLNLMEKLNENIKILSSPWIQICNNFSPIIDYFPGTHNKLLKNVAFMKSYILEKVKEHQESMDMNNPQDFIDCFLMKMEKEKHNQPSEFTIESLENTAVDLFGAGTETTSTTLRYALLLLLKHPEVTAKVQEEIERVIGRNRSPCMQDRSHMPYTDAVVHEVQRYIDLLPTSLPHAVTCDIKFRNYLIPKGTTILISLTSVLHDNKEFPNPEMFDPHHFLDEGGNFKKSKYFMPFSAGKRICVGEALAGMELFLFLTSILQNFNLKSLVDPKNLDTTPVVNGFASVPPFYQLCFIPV

CYP2D6 = CYP2D6 (Homo sapiens, UniProt P10635); assay: Inhibition of CYP2D6 in human liver microsomes using dextromethorphan as substrate at 10 uM preincubated with compound for 5 mins followed by NADPH addition and measured after 20 mins by LC-MS/MS analysis relative to control; assay type: ADME, Microsome; settings: probe dextromethorphan, time 25 min
Sequence of CYP2D6 (P10635 whole entry): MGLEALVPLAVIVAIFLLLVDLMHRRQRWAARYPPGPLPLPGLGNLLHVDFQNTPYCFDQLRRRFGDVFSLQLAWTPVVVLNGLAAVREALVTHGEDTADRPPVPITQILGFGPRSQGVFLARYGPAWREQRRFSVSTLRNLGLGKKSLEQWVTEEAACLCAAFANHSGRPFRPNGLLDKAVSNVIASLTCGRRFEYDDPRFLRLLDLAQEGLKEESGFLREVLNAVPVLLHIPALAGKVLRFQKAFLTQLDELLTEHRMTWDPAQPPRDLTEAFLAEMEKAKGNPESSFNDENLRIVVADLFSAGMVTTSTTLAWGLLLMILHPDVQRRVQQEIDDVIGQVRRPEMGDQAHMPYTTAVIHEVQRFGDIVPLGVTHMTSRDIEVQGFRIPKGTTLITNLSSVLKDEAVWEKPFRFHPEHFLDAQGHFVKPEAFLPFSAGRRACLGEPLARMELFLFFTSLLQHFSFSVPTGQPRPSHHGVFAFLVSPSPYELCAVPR

Sudan ebolavirus [13] = assay: Antiviral activity against pseudotyped Sudan ebolavirus Gulu infected in human A549 cells assessed as inhibition of viral growth; assay type: functional, organism-based
Bundibugyo virus = assay: Antiviral activity against pseudotyped Bundibugyo virus infected in human A549 cells assessed as inhibition of viral growth; assay type: functional, organism-based
Tai Forest ebolavirus = assay: Antiviral activity against pseudotyped Tai Forest ebolavirus infected in human A549 cells assessed as inhibition of viral growth; assay type: functional, organism-based
[14] = Metabolic stability in human microsome measured at 60 min; assay type: ADME; settings: microsomes, read-out: Stability
Ebolavirus [15] = assay: Antiviral activity against pseudotyped EBOV 1976 Zaire Mayinga assessed as inhibition of viral growth; assay type: functional, organism-based; settings: Orthoebolavirus
Marburgvirus [16] = assay: Antiviral activity against pseudotyped Marburgvirus 2005 Lake Victoria Angola assessed as inhibition of viral growth; assay type: functional, organism-based; settings: Orthomarburgvirus
Ebolavirus [17] = assay: Antiviral activity against infectious EBOV 1976 Zaire Mayinga assessed as inhibition of viral growth; assay type: functional, organism-based; settings: Orthoebolavirus

In the case of `OCCOc1ccc(/C(=C(/CCCl)c2ccccc2)c2ccccc2)cc1` [OSPEMIFENE], the Kd [1] is reported as 19.8 µM.
In the case of `CN(C)CCOc1ccc(/C(=C(/CCCl)c2ccccc2)c2ccccc2)cc1` [TOREMIFENE], the Kd [1] is reported as 18.9 µM, the Activity (Ebolavirus [2]) is reported as “inactive” and the Activity (Marburgvirus [3]) is reported as “inactive”.
Compound `CN(C)C1CCN(C(=O)c2cc3ccccc3n2CC2CCCCC2)CC1` has an EC50 (Ebolavirus [4]) of 0.295 µM, a selectivity ratio [5] of 170 and an EC50 (Marburgvirus [6]) of 3.34 µM. The selectivity ratio [7] was 15, the Activity (Ebolavirus [2]) was “inactive” and the Activity (Marburgvirus [3]) was “inactive”. The EC50 (Ebolavirus [8]) was 0.391 µM, the EC50 (Sudan ebolavirus [9]) was 0.652 µM and the EC50 (Marburgvirus [10]) was 1.32 µM. For the same compound, the remaining at 1 h [11] was 100%, the remaining at 1 h [12] was 100% and the inhibition at 20 min, 10 µM (CYP2C9) was 4.82%. For the same compound, the inhibition at 20 min, 10 µM (CYP2D6) was 19.1%.
Work on `CN(C)C1CCN(C(=O)c2cc3occc3n2Cc2ccc(Cl)cc2)CC1` yielded an EC50 (Ebolavirus [4]) of 1.05 µM, a selectivity ratio [5] of 58 and an EC50 (Marburgvirus [6]) of 11.5 µM. The selectivity ratio [7] was 5.3, the EC50 (Sudan ebolavirus [13]) was 0.641 µM and the EC50 (Bundibugyo virus) was 1.99 µM. For the same compound, the EC50 (Tai Forest ebolavirus) was 5.6 µM, the EC50 (Ebolavirus [8]) was 6.21 µM and the EC50 (Sudan ebolavirus [9]) was 0.5 µM. The EC50 (Marburgvirus [10]) was 7.96 µM, the remaining at 1 h [11] was 100% and the remaining at 1 h [12] was 100%.
Work on `CN(C)C1CCN(C(=O)c2cn(Cc3ccccc3)c3ccccc23)CC1` yielded an EC50 (Ebolavirus [4]) of 2.84 µM, an EC50 (Marburgvirus [6]) of 14.6 µM and a selectivity ratio [7] of 6.9. For the same compound, the remaining at 1 h [14] was 95.7%, the remaining at 1 h [11] was 100% and the remaining at 1 h [12] was 100%.
Work on `CN(C)CCNC(=O)c1cc2occc2n1Cc1ccc(Cl)cc1` yielded an EC50 (Ebolavirus [15]) of 1.26 µM, an EC50 (Marburgvirus [16]) of 7.7 µM and an EC50 (Ebolavirus [17]) of 5.2 µM. For the same compound, the EC50 (Ebolavirus [4]) was 1.26 µM, the selectivity ratio [5] was 50 and the EC50 (Marburgvirus [6]) was 6.47 µM. The selectivity ratio [7] was 9.8, the EC50 (Sudan ebolavirus [13]) was 1.04 µM and the EC50 (Bundibugyo virus) was 1.95 µM. It also gave an EC50 (Tai Forest ebolavirus) of 4.3 µM, an EC50 (Ebolavirus [8]) of 2.43 µM and an EC50 (Sudan ebolavirus [9]) of 3.29 µM. It also gave an EC50 (Marburgvirus [10]) of 6.69 µM, a remaining at 1 h [11] of 100% and a remaining at 1 h [12] of 100%.

Source: ChEMBL document CHEMBL5576160, “N-Substituted Pyrrole-Based Heterocycles as Broad-Spectrum Filoviral Entry Inhibitors” (J Med Chem, 2024)
